According to US20090274739A1, “METHODS AND COMPOSITIONS FOR TREATING NEOINTIMAL HYPERPLASIA” (THE TRUSTEES OF COLUMBIA UNIVERSITY IN THE CITY OF NEW YORK, priority 2006, published 2009):
“And” between values parts separate entries of the source, which are not always exact repeats. Equal values may be shown once. “Also recorded” adds a separate entry of the source.

How the values were obtained:
[1] = tested on: MAPK (p44/p42, ERK1/2) phosphorylation; test: Immunoblot of MAPK (ERK1/2, p44/p42) phosphorylation in VSMC; assay type: cell-based, mouse
Protocol: (§1) Western blot analysis: The cells were plated in a 100-mm culture dish in DMEM supplemented with 20% FBS for 24 h at 37° C., followed by serum starvation for 48 h. Cells were then treated with different reagents for 30 min. Cells were subsequently lysed on ice for 30 min in RIPA buffer [150 mM NaCl, 100 mM Tris (pH 8.0), 1% Triton X-100, 1% deoxycholic acid, 0.1% SDS, 5 mM EDTA, and 10 mM NaF] supplemented with 1 mM sodium vanadate, 2 mM leupeptin, 2 mM aprotinin, 1 mM phenylmethylsulfonyl fluoride (PMSF), 1 mM DTT, and 2 mM pepstatin A. After centrifugation at 14,000 rpm for 30 min, the supernatant was harvested as the total cellular protein extract, and stored at −70° C. The protein concentration was determined using Bio-Rad protein assay reagent (Richmond, Calif.). The total cellular protein extracts were separated by SDS-polyacrylamide gel electrophoresis (SDS-PAGE) and transferred to nitrocellulose membrane in 20 mM Tris-HCl (pH 8.0) containing 150 mM glycine and 20% (v/v) methanol.
(§2) Membranes were blocked with 5% nonfat dried milk in PBS containing 0.05% Tween 20 and incubated with antibodies against phospho-(Thr^202/Tyr^204) p42/p44^MAPK and p42/p44^MAPK, phospho-Akt([…]) and anti-Akt, p70^S6K, 4EBP-1. Blots were washed three times in PBS buffer, followed by incubation with the appropriate HRP-linked IgG. The specific proteins in the blots were visualized using an enhanced chemiluminescence reagent (NEN, Boston, Mass.).
(§3) VSMC were plated on 100-mm dishes, serum starved for 72 h in DMEM containing 0.1% FBS, and stimulated with 0.6 or 6 nM (10 or 100 ng/ml) leptin. Extracts were prepared by brief sonication in HKM buffer [40 mM HEPES-KOH (pH 7.6), 7.5 mM MgCl2, 0.5 mM DTT] or, in the case of Akt phosphorylation studies, by lysing cells on ice for 30 min in RIPA buffer. 70 μg of protein per sample were subjected to immunoblotting by standards protocols. Imaging and densitometry were performed on an Odyssey infrared system (Li-Cor, Lincoln, Neb.).

[2] = tested on: primary murine aortic vascular smooth muscle cells (VSMC); test: VSMC proliferation assay (Coulter counter / MTS-based); assay type: cell-based, mouse
Protocol: The methods used in the above experiments were as follows: Cell Culture and VSMC Proliferation Assays. Primary VSMC were isolated from aortic explants of wildtype, ob/ob, or db/db mice in the method of Roque et al. 30. VSMC were routinely cultured in Dulbecco's Modified Eagle's Medium (DMEM) containing either 4500 or 1250 mg/L glucose supplemented with 20% FBS at 37° C. in a 5% CO2 incubator. […] Cells were plated at 200,000 cells/ well of a 6 well dish and subsequently serum starved for 72 hr in DMEM media supplemented with 0.1 % FBS. Leptin dissolved in PBS was added directly to serum-free media at concentrations of 1, 10, or 100 ng/ml with […] LY294002 or U0126, and cells were grown for another 72 hr before harvesting. VSMC proliferation was measured by counting samples using a Coulter counter or using the Cell Titre 96 Aqueous One Solution Cell Proliferation Assay kit (Promega). Cell viability was assessed by Trypan Blue staining.
Proliferation of VSMCs: VSMC proliferation was measured by counting triplicate samples using a Coulter counter or using the CellTitier 96 Aqueous One Solution Cell Proliferation Assay (Promega, Madison, Wis.) kit per manufacturer's instructions. Cell viability was assessed via staining with Trypan Blue.
Murine VSMCs (2×10^4 cells/well) were incubated in a 6-well tissue culture plate for 72 hours in DMEM containing 0.1% FBS with or without insulin (10 or 100 nmol/L) and with 0, 1, 10, or 100 nmol/L rapamycin. Triplicate samples were counted using a Coulter counter and were normalized as percentage of the control group. Cell viability was checked via Trypan blue staining.
Murine VSMCs, seeded 2×10^4 cells/well in a 6-well plate, were starved for 72 hrs in DMEM with 0.1% FBS. Rapamycin, leptin, or insulin in different concentrations indicated in the figure were incubated with VSMCs in DMEM with 0.1% of FBS for 72 hrs. Triplicate samples were counted via a Coulter counter. Cell viability was checked via Trypan blue staining. […] In panel C, VSMCs were exposed to U0126, a specific MEK1/2 inhibitor, or LY294002, a specific PI3K inhibitor.
Primary VSMC were isolated from aortic explants of WT, ob/ob, or db/db mice (46). VSMC proliferation was determined using the Cell Titre Aqueous One Solution Proliferation Assay (Promega, Madison, Wis.). Migration to PDGF-BB was assessed in a modified Boyden chamber assay (47).

[3] = tested on: murine femoral artery wire injury model (neointimal hyperplasia); test: Femoral artery wire injury model, morphometry of neointimal formation; assay type: in vivo, mouse; set-up: Lumen / Media / Intima / TVA (total vessel area): unit not given here; details: for decrease of neointimal formation compared to vehicle: absence of leptin; for I/M (intima:media ratio) / Intima / Lumen / Media / TVA (total vessel area): mean ± SD
Text: Animal Models and Drug Treatments. Wild type C57BL/6J background mice and mice deficient for leptin (C57BL/6J-Lepob; ob/ob) or the leptin receptor (C57BL/6J-m+/+Lepdb; db/db) were purchased from Charles Jackson Laboratories, Maine. Mice were obtained at ages 6-8 weeks old and average weight 15 g. Animals were fed standard rodent chow and tap water ad libitum. Procedures and animal care were approved by the Institutional Animal Care and Use Committee. Mice were subjected to femoral artery wire injury or sham injury described below 24 hr prior to starting pharmacological treatments. Sirolimus was administered by intraperitoneal injection once per day for 14 days as a suspension in 0.2% sodium carboxymethyl cellulose and 0.25% polysorbate-80; duplicate experiments were accomplished with 0.5% DMSO. Leptin or LY294002 was administered by intraperitoneal injection once per day for 14 days as a suspension in PBS. Plasma leptin levels were measured at baseline, 3, 6, and 10 hr after leptin injection using an ELISA assay (R&D). Leptin plus the vehicle used for both sirolimus and LY294002 was used as the control group for the treatment groups with sirolimus and LY294002. After the 2-week treatment, animals were processed for femoral artery morphometry.
Femoral Artery Injury Model. Endoluminal injury of bilateral femoral arteries was performed according to the method of Roque et al. with minor modification 27. […] Briefly, to denude and dilate femoral arteries, a 0.014″ angioplasty guidewire (Guidant) was passed endoluminally 3 times to the level of the aortic bifurcation. A sham protocol was performed where the arteries underwent dissection, clamping, and ligature without passage of the guidewire.
Computer-aided quantitative morphometry to measure luminal, medial, intimal, and vessel areas were performed as previously described 27 with minor modification. Mice were euthanized via CO2 asphyxiation prior to en bloc excision of hind limbs. Briefly, multiple segments of the common femoral artery at the level of injury were fixed in 10% Zinc Formalin, embedded in paraffin, sectioned at […] thickness, and subjected to Elastic-Van Gieson staining at a Columbia University Core Histology facility. In many cases, arteries underwent immunohistochemical staining for smooth muscle a-actin to highlight the media and neointima. Photomicrographs were captured on Adobe Photoshop 7.0 and transferred to Scion Image software for quantitative analysis. Specimens were analyzed by two independent operators blinded to the treatment groups. Microsoft Excel software was used to calculate the RNI values from I/M ratios in the absence and presence of pharmacological inhibitors, as detailed in the text.
Surgical Procedures: The mouse femoral artery wire injury model of was used with minor modifications (Roque M, et al., Arterioscler Thromb Vasc Biol, 2000, 20(2):335-42). Briefly, forty-two male mice were studied. Endoluminal injury to the common femoral artery was produced by either 3 passages of a 0.014″ diameter angioplasty guidewire (Guidant, Santa Clara, Calif.). […] While being viewed under a surgical microscope, a groin incision was made and the femoral artery was isolated and temporarily clamped distal to the inguinal ligament. An arteriotomy was performed and the guidewire was passed 3 times to the level of the aortic bifurcation. The artery was then ligated proximal to the arteriotomy. A sham protocol was carried out on the contralateral side where the arteries underwent dissection, temporary clamping, and ligature, without passage of the wire. The formation of the neointima was confirmed in this model as being comprised mainly of VSMCs through immunohistochemical staining of representative sections for α-smooth muscle actin via a commercial kit (Sigma).
For all treatment protocols, rapamycin was administered by intraperitoneal injection once per day, for 14 days, as a suspension in 0.2% sodium carboxymethyl cellulose and 0.25% polysorbate-80. […]

Akt phosphorylation = test: Immunoblot of Akt phosphorylation in VSMC; assay type: cell-based, mouse; details: Example 2; rapamycin; leptin 100 ng/ml
Protocol: as §1, §2, §3

[4] = tested on: wire-injured femoral artery of hyperglycemic (STZ) mice; test: Femoral artery wire injury in streptozotocin-induced hyperglycemic mice; assay type: in vivo, mouse
Protocol: For the studies carried out in hyperglycemic mice, animals received an intraperitoneal injection of 60 mg/kg/d for 5 days of streptozotocin (STZ) in 0.05 mol/L citrate buffer. Surgery was performed 3 days following the final injection. Blood glucose levels were measured prior to injury (representing baseline levels), at time of injury, at euthanasia, and as needed during insulin administration with the OneTouch SureStep® Blood glucose monitoring system (Lifescan, Inc., Milipitas, Calif.). Only animals with blood glucose concentrations >300 mg/dL were included in this study.
Insulin (12-26 U/kg) was administered via an intraperitoneal route twice per day, for 14 days, according to blood glucose measurements.
Morphometry: Mice were euthanized via CO2 asphyxiation and were perfused with 10% Zinc Formalin through the left ventricle at physiological pressure (100 mm Hg). Tissues were excised and fixed overnight in 10% Zinc Formalin, embedded in paraffin, and sectioned at 5 μm thickness. Multiple level sections were cut at 100 pm intervals. For morphometry, tissues were stained with elastic van Gieson stain. Using computer aided morphometry (Scion Image), luminal, medial, intimal, and vessel area, and the lengths of the internal and external elastic laminae were measured as previously described (Roque M, et al., Arterioscler Thromb Vasc Biol, 2000, 20(2):335-42) in a blinded manner. […]

[5] = wire injury + leptin 0.4 mg/kg, SRL 1 mg/kg/d i.p. 14 days
[6] = wire injury + leptin 0.4 mg/kg, SRL 4 mg/kg/d i.p. 14 days
[7] = wire injury + leptin 0.4 mg/kg, SRL 9 mg/kg/d i.p. 14 days
[8] = wire injury, SRL 1 mg/kg/d i.p. 14 days, no leptin
[9] = wire injury, SRL 4 mg/kg/d i.p. 14 days, no leptin
[10] = wire injury, SRL 9 mg/kg/d i.p. 14 days, no leptin

N#CC(=C(/N)Sc1ccccc1N)/C(C#N)=C(\N)Sc1ccccc1N [U0126]
leptin-stimulated phosphorylation of MAPK ([1]; Example 1, data not shown): prevented | leptin-stimulated phosphorylation of MAPK ([1]; Example 5, U0126 10 μM): prevented | VSMC proliferation induced by leptin and insulin [2]: weak inhibition; also recorded: not inhibited | effect on leptin-induced VSMC proliferation [2]: did not significantly alter | effect on leptin-induced proliferation of murine VSMC [2]: did not significantly alter

CO[C@H]1C[C@@H]2CC[C@@H](C)[C@@](O)(O2)C(=O)C(=O)N2CCCC[C@H]2C(=O)O[C@H]([C@H](C)C[C@@H]2CC[C@@H](O)[C@H](OC)C2)CC(=O)[C@H](C)/C=C(\C)[C@@H](O)[C@@H](OC)C(=O)[C@H](C)C[C@H](C)/C=C/C=C/C=C/1C [sirolimus, rapamycin]
decrease of neointimal formation compared to vehicle ([3]; sirolimus 1 mg/kg/d): ~2 fold | relative neointimal inhibition (RNI) ([3]; sirolimus 1 mg/kg/d, in the presence of leptin 0.4 mg/kg): 0.35 | relative neointimal inhibition (RNI) ([3]; sirolimus 1 mg/kg/d, without leptin, RNI 1 = total inhibition): 0.51 | decrease of neointimal formation compared to vehicle ([3]; sirolimus 4 mg/kg/d): ~5 fold | relative neointimal inhibition (RNI) ([3]; sirolimus 4 mg/kg/d, in the presence of leptin 0.4 mg/kg): 0.67 | relative neointimal inhibition (RNI) ([3]; sirolimus 4 mg/kg/d, without leptin): 0.81 | decrease of neointimal formation compared to vehicle ([3]; sirolimus 9 mg/kg/d): ~5 fold and ~6 fold | relative neointimal inhibition (RNI) ([3]; sirolimus 9 mg/kg/d, in the presence of leptin 0.4 mg/kg): 0.97 | relative neointimal inhibition (RNI) ([3]; sirolimus 9 mg/kg/d, without leptin): 0.85 | I/M (intima:media ratio) [3, 5]: 1.269 ± 0.254 | Intima [3, 5]: 0.024 ± 0.005 | Lumen [3, 5]: 0.010 ± 0.002 | Media [3, 5]: 0.019 ± 0.001 | TVA (total vessel area) [3, 5]: 0.056 ± 0.007 | I/M (intima:media ratio) [3, 6]: 0.654 ± 0.172 | Intima [3, 6]: 0.009 ± 0.001 | Lumen [3, 6]: 0.012 ± 0.004 | Media [3, 6]: 0.015 ± 0.002 | TVA (total vessel area) [3, 6]: 0.035 ± 0.006 | I/M (intima:media ratio) [3, 7]: 0.061 ± 0.015 | Intima [3, 7]: 0.001 ± 0.000 | Lumen [3, 7]: 0.014 ± 0.002 | Media [3, 7]: 0.017 ± 0.003 | TVA (total vessel area) [3, 7]: 0.031 ± 0.004 | I/M (intima:media ratio) [3, 8]: 0.334 ± 0.043 | Intima [3, 8]: 0.005 ± 0.001 | Lumen [3, 8]: 0.012 ± .003 | Media [3, 8]: 0.014 ± 0.001 | TVA (total vessel area) [3, 8]: 0.029 ± 0.003 | I/M (intima:media ratio) [3, 9]: 0.121 ± 0.027 | Intima [3, 9]: 0.001 ± 0.000 | Lumen [3, 9]: 0.012 ± 0.005 | Media [3, 9]: 0.015 ± 0.003 | TVA (total vessel area) [3, 9]: 0.028 ± 0.006 | I/M (intima:media ratio) [3, 10]: 0.094 ± 0.037 | Intima [3, 10]: 0.001 ± 0.000 | Lumen [3, 10]: 0.015 ± 0.002 | Media [3, 10]: 0.015 ± 0.002 | TVA (total vessel area) [3, 10]: 0.030 ± 0.004 | inhibition of leptin-stimulated phosphorylation of ERK1/2 ([1]; Example 2, rapamycin, leptin 100 ng/ml): did not inhibit | inhibition of leptin-stimulated phosphorylation of Akt (Akt phosphorylation): did not inhibit

Insulin: insulin purchased from Calbiochem
blood glucose levels ([4]; STZ mice, insulin 12-26 U/kg twice per day): reduce blood glucose levels to normal levels | intima:media ratio ([4]; STZ+INS, insulin 12-26 U/kg i.p. twice per day 14 days, p<0.01): significant increase | VSMC proliferation ([2]; insulin 10 or 100 nmol/L, 72 hours): induced a dose dependent increase in cell proliferation
